Data reported in US20090036470A1, “PALIPERIDONE DERIVATIVES” (priority 2007, published 2009).

Assay: Conversion of the compound (2) into paliperidone in acidic fluid (dissolution test of the Example 5 tablet in Simulated Gastric Fluid)
Type: physicochemical
Procedure: Conversion of the Compound (2) into Paliperidone in Acidic Fluid
A tablet of the following composition was prepared:
Compound (2), Prosolv HD-90 and low substituted hydroxypropylcellulose were mixed for 10 minutes at 22 rpm in a free fall mixer. The blend was forced sieved over a 250 micron sieve. The blend was then mixed for another 10 minutes in a free fall mixer at 22 rpm. The sodium stearyl fumarate was sieved over an 800 micron sieve and added to the blend. The blend was mixed for another 5 minutes at 22 rpm. Tablets were compressed on the Ek-0. Tablet mass was 100 mg, tablet hardness 30 N and the tablet diameter was 8 mm.
Determination of the dissolution assay at single point or dissolution profile was performed in Simulated Gastric Fluid (SGF) without pepsin (pH=1.2) with the paddle apparatus based on USP <711>, “Apparatus 2”. The dissolution samples were immediately neutralized to pH=7 upon sampling. The amount of paliperidone and compound (2) in the neutralized dissolution samples at the specified time point(s) was determined by HPLC at 280 nm.

- time for quantitative conversion into paliperidone (Simulated Gastric Fluid without pepsin, pH=1.2, USP paddle apparatus 2, from Example 5 tablet (10.8 mg compound (2)), HPLC at 280 nm, six vessel test, FIGS. 1 and 2): approx. 10 minutes
- extent of conversion into paliperidone (acidic fluid, as shown in FIG. 1): quantitatively
Compound: Cc1nc2n(c(=O)c1CCN1CCC(c3noc4cc(F)ccc34)CC1)CCCC2OC1CCCCO1 (centres unmarked) [Compound (2)]
